Source: patent US9850283B2, “Macrocyclic inhibitors of the PD-1/PD-L1 and CD80(B7-1)/PD-L1 protein/protein interactions” (BRISTOL-MYERS SQUIBB COMPANY, priority 2013, dated 2017)
pEC50, pIC50: −log10 of the molar value. Where two headings read alike, the source gives them in different places. Positions of bridges follow the written chain, without caps; N, C: chain ends. Non-standard residues stand in square brackets, D forms with d. Residues, ends and D or L forms follow the SMILES beside them. ξ: configuration not given here. Bta = N[C@@H](Cc1csc2ccccc12)C(=O)O; Hyp = O=C(O)[C@@H]1C[C@@H](O)CN1; NMeNle = CCCC[C@H](NC)C(=O)O; NMeM = CN[C@@H](CCSC)C(=O)O; NMeA = CN[C@@H](C)C(=O)O; Dab = NCC[C@H](N)C(=O)O; Dap = NC[C@H](N)C(=O)O; ξP = O=C(O)C1CCCN1; ξC = NC(CS)C(=O)O; Sar = CNCC(=O)O

Experiments:
[1] = target: T1, Human PD-L1/PD-1 (Homo sapiens, UniProt Q9NZQ7); experiment: HTRF PD-1-Ig/PD-L1-His binding assay (human PD-L1)
T1 construct: made in house; host or cells: HEK293T
T1 sequence (Q9NZQ7 with tags, fused parts or gaps): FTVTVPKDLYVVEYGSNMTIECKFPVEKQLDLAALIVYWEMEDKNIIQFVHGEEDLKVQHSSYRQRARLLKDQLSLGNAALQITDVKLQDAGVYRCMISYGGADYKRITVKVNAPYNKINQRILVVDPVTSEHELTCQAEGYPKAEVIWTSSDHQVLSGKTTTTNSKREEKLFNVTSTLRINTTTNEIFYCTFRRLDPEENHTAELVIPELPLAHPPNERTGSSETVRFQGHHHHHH
Procedure, shortened: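 Interaction of Fc-tagged soluble PD-1 with His-tagged soluble PD-L1 is monitored by time-resolved FRET. Donor is europium cryptate anti-Ig (1 nM final) and acceptor is APC anti-His (20 nM final). Assay buffer is dPBS with 0.1% BSA and 0.05% Tween-20.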

[2] = tested on: CMV-specific T cells; details: read-out: EC50, IFNγ secretion by CMV-specific T cells; FIG. 10A-C
[3] = target: CMV-specific T cells (Homo sapiens, UniProt Q9NZQ7); experiment: CMV-specific T cell function assay (IFNγ secretion, ELISA); assay type: cell-based
CMV-specific T cells (Homo sapiens, UniProt Q9NZQ7), sequence (Q9NZQ7 19-290): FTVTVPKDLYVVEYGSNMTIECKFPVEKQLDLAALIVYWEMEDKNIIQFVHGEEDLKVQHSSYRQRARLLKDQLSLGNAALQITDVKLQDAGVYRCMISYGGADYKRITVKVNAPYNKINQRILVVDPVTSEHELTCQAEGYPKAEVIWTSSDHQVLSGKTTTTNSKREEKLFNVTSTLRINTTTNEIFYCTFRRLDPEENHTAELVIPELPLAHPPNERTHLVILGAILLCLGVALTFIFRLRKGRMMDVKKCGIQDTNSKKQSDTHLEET
Procedure: CMV-specific T Cell Function Assay. […] AIM-V medium (Life Technologies, Grand Island, N.Y.) supplemented with 10% heat-inactivated fetal bovine serum (FBS, Sigma, St Louis, Mo.) was used at a total volume of 200 µL/well in triplicate. The cells were cultured for 4 days at 37° C., 5% CO2 at which time culture supernatant was harvested for determination of secreted IFNγ by ELISA (OptEIA hIFNγ ELISA Kit, BD Biosciences, San Jose, Calif.).

[4] = target: T2, LK35.2-hPD-L1 cells / PE-labeled PD-1-Ig (Homo sapiens, UniProt Q9NZQ7); experiment: LK35.2-hPD-L1 cell binding high-content screening assay; assay type: cell-based; details: cell binding assay, cell line not given
T2 construct: expressed in transfected cells; host or cells: LK35.2 mouse B cell line
T2 sequence (Q9NZQ7 19-290): as above
Procedure, shortened: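 Fluorescent PD-1-Ig binding to PD-L1-expressing LK35.2 cells, imaged after washing. Conditions: 1 nM PE-PD-1-Ig, 37 °C, 1 h, RPMI with 10% fetal calf serum.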

[5] = Table 6, read-out: HTRF Human PD-L1/PD-1 Binding Assay IC50
[6] = value given instead of cluster, read-out: HTRF IC50 value
[7] = value given instead of cluster, read-out: CMV Recall EC50 value
[8] = value given instead of cluster, read-out: CBA IC50 value
[9] = numeric value, read-out: HTRF IC50 values
[10] = numeric value, read-out: CMV Recall EC50 values
[11] = numeric value, read-out: CBA IC50 values

## CCCC[C@H]1C(=O)N(C)[C@@H](CCCC)C(=O)N[C@@H](CCCNC(=N)N)C(=O)N[C@H](C(=O)NCC(N)=O)CSCC(=O)N[C@@H](Cc2ccccc2)C(=O)N(C)[C@@H](C)C(=O)N[C@@H](CC(N)=O)C(=O)N2CCCC2C(=O)N[C@@H](Cc2cnc[nH]2)C(=O)N[C@@H](CC(C)C)C(=O)N(C)CC(=O)N[C@@H](Cc2c[nH]c3ccccc23)C(=O)N[C@@H](CO)C(=O)N[C@@H](Cc2c[nH]c3ccccc23)C(=O)N1C (stereo partly drawn) [Compound No. 1] ({CH2CO}-F[NMeA]N[ξP]HL[Sar]WSW[NMeNle][NMeNle]RCG-NH2; thioether N-14)
[1]; [5]
  pIC50: 8.05
[1]; Table 8, Compound No. 1 variant macrocyclic peptides, read-out: HTRF Human PD-L1/PD-1 Binding Assay IC50
  pIC50: 8.05
[2]
  pEC50: 6.40

## CC[C@H](C)[C@@H]1NC(=O)[C@H](CC(C)C)NC(=O)[C@H](Cc2ccccc2)NC(=O)CSC[C@@H](C(=O)NCC(N)=O)NC(=O)[C@H](CCCNC(=N)N)NC(=O)[C@H](Cc2ccccc2)NC(=O)[C@H](C(C)C)NC(=O)[C@H](CCCNC(=N)N)NC(=O)[C@H](CC(=O)O)NC(=O)[C@H](CCCNC(=N)N)NC(=O)[C@H]([C@@H](C)CC)NC(=O)[C@H](C(C)C)NC1=O [Compound No. 99] (HELM PEPTIDE1{[O=C(C[*:3])[*:2]].F.L.I.V.I.R.D.R.V.F.R.C.G.[am]}$PEPTIDE1,PEPTIDE1,1:R3-13:R3$$$V2.0)
[1]; [5]
  pIC50: 6.82
[1]; Table 7, Compound No. 99 variant macrocyclic peptides, read-out: HTRF Human PD-L1/PD-1 Binding Assay IC50
  pIC50: 6.82
[2]
  pEC50: < 5.00

## CCCC[C@H]1C(=O)N(C)[C@@H](CCCC)C(=O)N[C@@H](CC(C)C)C(=O)N[C@H](C(=O)NCC(N)=O)CSCC(=O)N[C@@H](Cc2ccc(O)cc2)C(=O)N(C)[C@@H](C)C(=O)N[C@@H](CC(N)=O)C(=O)N2CCC[C@H]2C(=O)N[C@@H](CN)C(=O)N[C@@H](CCC(=O)O)C(=O)N2C[C@H](O)C[C@H]2C(=O)N[C@@H](Cc2c[nH]c3ccccc23)C(=O)N[C@@H](CCN)C(=O)N[C@@H](Cc2c[nH]c3ccccc23)C(=O)N1C [Example 5067] ({CH2CO}-Y[NMeA]NP[Dap]E[Hyp]W[Dab]W[NMeNle][NMeNle]LCG-NH2; thioether N-14)
[1]; [6]
  pIC50: 8.24
[3]; [7]
  pEC50: 8.49
[4]; [8]
  pIC50: 8.74

## CCCC[C@H]1C(=O)N(C)[C@@H](CCCC)C(=O)N[C@@H](CC(C)C)C(=O)N[C@H](C(=O)NCC(N)=O)CSCC(=O)N[C@@H](Cc2ccc(O)cc2)C(=O)N(C)[C@@H](C)C(=O)N[C@@H](CC(N)=O)C(=O)N2CCC[C@H]2C(=O)N[C@@H](CN)C(=O)N[C@@H](CCC(=O)O)C(=O)N2C[C@H](O)C[C@H]2C(=O)N[C@@H](Cc2c[nH]c3ccccc23)C(=O)N[C@@H](CO)C(=O)N[C@@H](Cc2c[nH]c3ccccc23)C(=O)N1C [Example 5071] ({CH2CO}-Y[NMeA]NP[Dap]E[Hyp]WSW[NMeNle][NMeNle]LCG-NH2; thioether N-14)
[1]; [6]
  pIC50: 7.98
[3]; [7]
  pEC50: 7.85
[4]; [8]
  pIC50: 9.00

## CCCC[C@H]1C(=O)N(C)[C@@H](CCCC)C(=O)N[C@@H](CCN)C(=O)N[C@H](C(=O)NCC(N)=O)CSCC(=O)N[C@@H](Cc2ccc(O)cc2)C(=O)N(C)[C@@H](C)C(=O)N[C@@H](CCN)C(=O)N2CCC[C@H]2C(=O)N[C@@H](Cc2c[nH]cn2)C(=O)N[C@@H](CCC(=O)O)C(=O)N2C[C@H](O)C[C@H]2C(=O)N[C@@H](Cc2c[nH]c3ccccc23)C(=O)N[C@@H](CO)C(=O)N[C@@H](Cc2c[nH]c3ccccc23)C(=O)N1C [Example 5093] ({CH2CO}-Y[NMeA][Dab]PHE[Hyp]WSW[NMeNle][NMeNle][Dab]CG-NH2; thioether N-14)
[1]; [6]
  pIC50: 8.17
[3]; [7]
  pEC50: 7.00
[4]; [8]
  pIC50: 8.50

## CCCC[C@H]1C(=O)N(C)[C@@H](CCCC)C(=O)N[C@@H](CO)C(=O)N[C@H](C(=O)NCC(N)=O)CSCC(=O)N[C@@H](Cc2ccc(O)cc2)C(=O)N(C)[C@@H](C)C(=O)N[C@@H](CC(=O)O)C(=O)N2CCC[C@H]2C(=O)N[C@@H](CO)C(=O)N[C@@H](CO)C(=O)N2C[C@H](O)C[C@H]2C(=O)N[C@@H](Cc2c[nH]c3ccccc23)C(=O)N[C@@H](CO)C(=O)N[C@@H](Cc2c[nH]c3ccccc23)C(=O)N1C [Example 5117] ({CH2CO}-Y[NMeA]DPSS[Hyp]WSW[NMeNle][NMeNle]SCG-NH2; thioether N-14)
[1]; [6]
  pIC50: 8.27
[3]; [7]
  pEC50: 6.99
[4]; [8]
  pIC50: 8.17

## CCCC[C@H]1C(=O)N([13CH3])[C@@H](CCCC)C(=O)N[C@@H](CCCNC(=N)N)C(=O)N[C@H](C(=O)NCC(N)=O)CSCC(=O)N[C@@H](Cc2ccc(O)cc2)C(=O)N([13CH3])[C@@H](C)C(=O)N[C@@H](CC(N)=O)C(=O)N2CCC[C@H]2C(=O)N[C@@H](Cc2cnc[nH]2)C(=O)N[C@@H](CC(C)C)C(=O)N2CCC[C@H]2C(=O)N[C@@H](Cc2c[nH]c3ccccc23)C(=O)N[C@@H](CO)C(=O)N[C@@H](Cc2csc3ccccc23)C(=O)N1[13CH3] [Example 6035]
[1]; [6]
  pIC50: 8.30
[3]; [7]
  pEC50: 8.24
[4]; [8]
  pIC50: 9.12

## CCCC[C@H]1C(=O)N[C@@H](CCCNC(=N)N)C(=O)NC(C(=O)NCC(N)=O)CSCC(=O)N[C@@H](Cc2ccc(O)cc2)C(=O)N(C)[C@@H](C)C(=O)N[C@@H](CC(N)=O)C(=O)N2CCC[C@H]2C(=O)N[C@@H](Cc2cnc[nH]2)C(=O)N[C@@H](CC(C)C)C(=O)N2C[C@H](O)C[C@H]2C(=O)N[C@@H](Cc2c[nH]c3ccccc23)C(=O)N[C@@H](CO)C(=O)N[C@@H](Cc2c[nH]c3ccccc23)C(=O)N(C)[C@@H](CCSC)C(=O)N1C (stereo partly drawn) [Example 9026]
[1]; [9]
  pIC50: 8.46
[3]; [10]
  pEC50: 7.46
[4]; [11]
  pIC50: 9.02

## CCCC[C@H]1C(=O)N(C)[C@@H](CCCC)C(=O)N[C@@H](CCCNC(=N)N)C(=O)NC(C(=O)N[C@@H](CO)C(N)=O)CSCC(=O)N[C@@H](Cc2ccc(O)cc2)C(=O)N(C)[C@@H](C)C(=O)N[C@@H](CC(N)=O)C(=O)N2CCC[C@H]2C(=O)N[C@@H](Cc2cnc[nH]2)C(=O)N[C@@H](CC(C)C)C(=O)N2CCC[C@H]2C(=O)N[C@@H](Cc2c[nH]c3ccccc23)C(=O)N[C@@H](CO)C(=O)N[C@@H](Cc2csc3ccccc23)C(=O)N1C (stereo partly drawn) [Example 9031] ({CH2CO}-Y[NMeA]NPHLPWS[Bta][NMeNle][NMeNle]R[ξC]S-NH2; thioether N-14)
[1]; [9]
  pIC50: 8.15
[3]; [10]
  pEC50: 7.40
[4]; [11]
  pIC50: 9.19

## CCCC[C@H]1C(=O)N[C@@H](CCCNC(=N)N)C(=O)NC(C(=O)NCC(N)=O)CSCC(=O)N[C@@H](Cc2ccc(O)cc2)C(=O)N(C)[C@@H](C)C(=O)N[C@@H](CC(N)=O)C(=O)N2CCC[C@H]2C(=O)N[C@@H](Cc2cnc[nH]2)C(=O)N[C@@H](CC(C)C)C(=O)N2C[C@H](O)C[C@H]2C(=O)N[C@@H](Cc2c[nH]c3ccccc23)C(=O)N[C@@H](CO)C(=O)N[C@@H](Cc2c[nH]c3ccccc23)C(=O)N(C)[C@@H](C)C(=O)N1C (stereo partly drawn) [Example 9057]
[1]; [9]
  pIC50: 7.83
[3]; [10]
  pEC50: 6.95
[4]; [11]
  pIC50: 7.71

## CCCC[C@H]1C(=O)N(C)[C@@H](CCCC)C(=O)N[C@@H](CCCNC(=N)N)C(=O)NC(C(=O)NCC(N)=O)CSCC(=O)N[C@@H](Cc2ccc(O)cc2)C(=O)N(C)[C@@H](C)C(=O)N[C@@H](CC(N)=O)C(=O)N2CCC[C@H]2C(=O)N[C@@H](Cc2cnc[nH]2)C(=O)N[C@@H](CO)C(=O)N2CCC[C@H]2C(=O)N[C@@H](Cc2c[nH]c3ccccc23)C(=O)N[C@@H](CO)C(=O)N[C@@H](Cc2csc3ccccc23)C(=O)N1C (stereo partly drawn) [Example 9068] ({CH2CO}-Y[NMeA]NPHSPWS[Bta][NMeNle][NMeNle]R[ξC]G-NH2; thioether N-14)
[1]; [9]
  pIC50: 9.41
[3]; [10]
  pEC50: 6.60
[4]; [11]
  pIC50: 8.69

## CCCC[C@H]1C(=O)N[C@@H](CCCNC(=N)N)C(=O)NC(C(=O)NCC(N)=O)CSCC(=O)N[C@@H](Cc2ccc(O)cc2)C(=O)N(C)[C@@H](C)C(=O)N[C@@H](CC(N)=O)C(=O)N2CCC[C@H]2C(=O)N[C@@H](CN)C(=O)N[C@@H](CC(C)C)C(=O)N2C[C@H](O)C[C@H]2C(=O)N[C@@H](Cc2c[nH]c3ccccc23)C(=O)N[C@@H](CO)C(=O)N[C@@H](Cc2c[nH]c3ccccc23)C(=O)N(C)[C@@H](CCSC)C(=O)N1C (stereo partly drawn) [Example 9091] ({CH2CO}-Y[NMeA]NP[Dap]L[Hyp]WSW[NMeM][NMeNle]R[ξC]G-NH2; thioether N-14)
[1]; [9]
  pIC50: 6.11
[3]; [10]
  pEC50: 8.25
[4]; [11]
  pIC50: 8.52
